Reference: patent US9969726B2, “Metabotropic glutamate receptor negative allosteric modulators (NAMS) and uses thereof” (Sanford-Burnham Medical Research Institute, priority 2014, dated 2018)
Where two headings read alike, the source gives them in different places.

Experiments:
rat mGlu2 receptor = rat mGlu2 receptor (Rattus norvegicus (Rat), UniProt P31421); test: mGlu2 in vitro GIRK thallium flux assay; assay type: cell-based; settings: NAM, EC80 glutamate, HEK-293 GIRK cells
Protocol: (§1) All cell culture reagents were purchased from Invitrogen Corp. (Carlsbad, Calif.) unless otherwise noted. Compound activity at the group II (mGlu2 and mGlu3) mGlus was assessed using thallium flux through GIRK channels. Briefly, cells were plated into 384-well, black-walled, clear-bottomed poly-D-lysine-coated plates at a density of 15,000 cells/20 μL/well in DMEM containing 10% dialyzed FBS, 20 mM HEPES, and 100 units/mL penicillin/streptomycin (assay media). Plated cells were incubated overnight at 37° C. in the presence of 5% CO2. […] Cells were incubated for 1 h at room temperature, and the dye exchanged to assay buffer using an ELX405, leaving 20 μL/well. Test compounds were diluted to 2 times their final desired concentration in assay buffer (0.3% DMSO final concentration). […] Cell plates and compound plates were loaded onto a kinetic imaging plate reader (FDSS 6000 or 7000; Hamamatsu Corporation, Bridgewater, N.J.). Appropriate baseline readings were taken (10 images at 1 Hz; excitation, 470±20 nm; emission, 540±30 nm) and test compounds were added in a 20 μL volume and incubated for either 2.5 min or 60 min as indicated before the addition of 10 μL of thallium buffer with or without agonist. After the addition of agonist, data were collected for approximately an additional 2.5 min. Data were analyzed using Excel (Microsoft Corp, Redmond, Wash.). The slope of the fluorescence increase beginning 5 s after thallium/agonist addition and ending 15 s after thallium/agonist addition was calculated, corrected to vehicle and maximal agonist control slope values, and plotted in using either XLfit (ID Business Solutions Ltd) or Prism software (GraphPad Software, San Diego, Calif.) to generate concentration-response curves. Potencies were calculated from fits using a four-point parameter logistic equation. For concentration-response curve experiments, compounds were serially diluted 1:3 into 10 point concentration response curves and were transferred to daughter plates using an Echo acoustic plate reformatter (Labcyte, Sunnyvale, Calif.). Test compounds were applied and followed by EC80 concentrations of glutamate.

rat mGlu3 receptor = rat mGlu3 receptor (Rattus norvegicus (Rat), UniProt P31422); test: mGlu3 in vitro GIRK thallium flux assay; assay type: cell-based; settings: NAM; 2.5 min compound incubation; EC80 glutamate; HEK-293 GIRK cells
Chain of rat mGlu3 receptor (P31422 23-879): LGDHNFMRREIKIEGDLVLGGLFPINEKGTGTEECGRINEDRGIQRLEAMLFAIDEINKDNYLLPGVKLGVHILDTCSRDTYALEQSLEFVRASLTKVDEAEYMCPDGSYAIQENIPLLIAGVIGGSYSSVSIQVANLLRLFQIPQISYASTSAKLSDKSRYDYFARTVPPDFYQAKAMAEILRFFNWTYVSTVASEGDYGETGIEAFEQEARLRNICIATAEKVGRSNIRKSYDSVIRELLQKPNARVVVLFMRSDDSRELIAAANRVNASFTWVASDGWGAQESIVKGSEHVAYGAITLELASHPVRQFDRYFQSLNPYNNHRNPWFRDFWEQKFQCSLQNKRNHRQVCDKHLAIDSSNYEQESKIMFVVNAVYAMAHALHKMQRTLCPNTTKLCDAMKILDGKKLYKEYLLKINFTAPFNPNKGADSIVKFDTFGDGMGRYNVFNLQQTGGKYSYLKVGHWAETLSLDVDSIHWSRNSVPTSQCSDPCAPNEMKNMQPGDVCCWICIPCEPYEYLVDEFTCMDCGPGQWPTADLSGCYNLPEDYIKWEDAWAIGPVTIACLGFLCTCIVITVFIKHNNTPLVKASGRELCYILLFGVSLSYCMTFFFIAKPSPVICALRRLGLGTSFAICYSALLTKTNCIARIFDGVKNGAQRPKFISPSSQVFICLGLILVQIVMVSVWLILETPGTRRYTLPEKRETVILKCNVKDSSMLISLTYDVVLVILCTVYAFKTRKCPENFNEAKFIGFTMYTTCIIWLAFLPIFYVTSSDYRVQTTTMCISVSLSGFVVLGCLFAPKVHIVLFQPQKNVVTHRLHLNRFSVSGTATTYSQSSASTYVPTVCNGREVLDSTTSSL
Protocol: as §1

[1] = 2.5 min compound incubation, read-out: mGlu2 EC50 (μM) (2.5 min)
[2] = read-out: mGlu2 EC50 (μM) (60 min), 60 min compound incubation
[3] = mGlu2 EC50 (μM) (60 min), 60 min compound incubation

Chain of rat mGlu2 receptor (P31421 19-872): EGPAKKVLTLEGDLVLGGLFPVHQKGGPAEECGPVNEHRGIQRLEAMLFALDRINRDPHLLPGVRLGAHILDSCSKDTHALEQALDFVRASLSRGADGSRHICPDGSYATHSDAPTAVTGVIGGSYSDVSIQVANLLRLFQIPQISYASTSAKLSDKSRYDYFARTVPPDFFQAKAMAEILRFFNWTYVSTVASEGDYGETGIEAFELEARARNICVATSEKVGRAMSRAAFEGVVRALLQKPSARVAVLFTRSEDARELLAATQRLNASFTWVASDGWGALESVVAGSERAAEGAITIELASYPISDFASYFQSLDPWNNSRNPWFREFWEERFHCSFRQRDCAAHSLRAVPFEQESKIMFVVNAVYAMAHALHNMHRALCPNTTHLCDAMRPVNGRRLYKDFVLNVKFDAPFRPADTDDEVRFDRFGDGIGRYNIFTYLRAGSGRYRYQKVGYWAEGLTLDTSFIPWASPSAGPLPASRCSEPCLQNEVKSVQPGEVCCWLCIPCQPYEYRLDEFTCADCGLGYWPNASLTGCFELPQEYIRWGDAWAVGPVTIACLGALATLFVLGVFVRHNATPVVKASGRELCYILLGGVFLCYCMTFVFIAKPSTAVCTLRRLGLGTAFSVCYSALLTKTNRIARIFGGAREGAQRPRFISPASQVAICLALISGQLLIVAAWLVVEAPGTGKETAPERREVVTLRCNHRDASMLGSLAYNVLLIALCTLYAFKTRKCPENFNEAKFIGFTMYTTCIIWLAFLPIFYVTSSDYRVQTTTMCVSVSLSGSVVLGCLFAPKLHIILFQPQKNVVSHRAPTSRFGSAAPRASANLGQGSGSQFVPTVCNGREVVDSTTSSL

Row | EC50 (rat mGlu2 receptor; [1]) | EC50 (rat mGlu3 receptor) | EC50 (rat mGlu2 receptor; [3]) | Compound | EC50 (rat mGlu2 receptor; [2])
1 | 0.89 µM | > 10 µM | 0.11 µM | O=C(O)c1ccc(F)c(-c2cccc(-c3nsc(-c4ccccc4)n3)c2)c1 [Example 41, 6-Fluoro-3′-(5-phenyl-1,2,4-thiadiazol-3-yl)biphenyl-3-carboxylic Acid] | 
2 | 3.63 µM | > 10 µM | 3.71 µM | O=C(O)c1cc(-c2cccc(-c3nsc(-c4ccoc4)n3)c2)ccc1F [Example 42, 4-Fluoro-3′-(5-(furan-3-yl)-1,2,4-thiadiazol-3-yl)biphenyl-3-carboxylic Acid] | 
3 | > 10 µM | > 10 µM | > 10 µM | O=C(O)c1cc(-c2cccc(-c3csc(-c4ccccc4)c3)c2)ccc1F [Example 45, 4-Fluoro-3′-(5-phenylthiophen-3-yl)-[1,1′-biphenyl]-3-carboxylic Acid] | 
4 | 1.33 µM | > 10 µM | 0.79 µM | O=C(O)c1cccc(-c2cccc(-c3noc(-c4ccccc4)n3)c2)c1 [Example 48, 3′-(5-Phenyl-1,2,4-oxadiazol-3-yl)-[1,1′-biphenyl]-3-carboxylic Acid] | 
5 | > 10 µM | 1.36 µM | > 10 µM | O=C(O)c1cccc(-c2cccc(-c3nc(-c4ccccc4)n(-c4ccccc4)n3)c2)c1 [Example 49A, 3′-(1,5-Diphenyl-1H-1,2,4-triazol-3-yl)-[1,1′-biphenyl]-3-carboxylic Acid] | 
6 | 0.59 µM | > 10 µM | 1.48 µM | Cn1nc(-c2cccc(-c3cccc(C(=O)O)c3)c2)nc1-c1ccccc1 [Example 50, 3′-(1-Methyl-5-phenyl-1H-1,2,4-triazol-3-yl)-[1,1′-biphenyl]-3-carboxylic Acid] | 
7 | > 10 µM | 5.8 µM | > 10 µM | O=C(O)c1cc(-c2cccc(-c3nc(-c4ccccc4)n(-c4ccccc4)n3)c2)ccc1F [Example 51, 3′-(1,5-Diphenyl-1H-1,2,4-triazol-3-yl)-4-fluoro-[1,1′-biphenyl]-3-carboxylic acid] | 
8 | > 10 µM | 3.11 µM | > 10 µM | O=C(O)c1cc(F)cc(-c2cccc(-c3nc(-c4ccccc4)n(-c4ccccc4)n3)c2)c1 [Example 52, 3′-(1,5-Diphenyl-1H-1,2,4-triazol-3-yl)-5-fluorobiphenyl-3-carboxylic Acid] | 

Further lines, the compound ahead of its results:

Row | Compound | EC50 (rat mGlu2 receptor; [1]) | EC50 (rat mGlu3 receptor) | EC50 (rat mGlu2 receptor; [3]) | EC50 (rat mGlu2 receptor; [2])
9 | c1ccc(-c2nc(-c3cccc(-c4cccc(-c5nn[nH]n5)c4)c3)cs2)cc1 [Example 37, 4-(3′-(2H-Tetrazol-5-yl)biphenyl-3-yl)-2-phenylthiazole] | 2.98 µM | > 10 µM |  | 1.72 µM
10 | O=C(O)c1cccc(-c2cccc(-c3nsc(-c4ccccc4)n3)c2)c1 [Example 39, 3′-(5-Phenyl-1,2,4-thiadiazol-3-yl)biphenyl-3-carboxylic Acid] | 0.32 µM | 2.28 µM | 0.05 µM | 
11 | O=C(O)c1cc(F)cc(-c2cccc(-c3nsc(-c4ccccc4)n3)c2)c1 [Example 40, 5-Fluoro-3′-(5-phenyl-1,2,4-thiadiazol-3-yl)biphenyl-3-carboxylic Acid] | 0.4 µM | 2.78 µM | 0.1 µM | 
12 | O=C(O)c1cccc(-c2cccc(-c3cc(-c4ccccc4)sn3)c2)c1 [Example 44, 3′-(5-Phenylisothiazol-3-yl)-[1,1′-biphenyl]-3-carboxylic Acid] | 0.68 µM | > 10 µM |  | 0.18 µM
13 | O=C(O)c1cccc(-c2cccc(-c3coc(-c4ccccc4)c3)c2)c1 [Example 46, 3′-(5-phenylfuran-3-yl)biphenyl-3-carboxylic Acid] | > 10 µM | > 30 µM | > 10 µM | 
14 | O=C(O)c1cccc(-c2cccc(-c3coc(-c4ccccc4)n3)c2)c1 [Example 47, 3′-(2-Phenyloxazol-4-yl)-[1,1′-biphenyl]-3-carboxylic Acid] | > 10 µM | > 30 µM | > 10 µM | 
